Measurements reported in patent US20250188123A1, “PROTEASE INHIBITORS” (Regents of the University of Minnesota, priority 2022, published 2025).
Like-named read-outs stand apart in the source and are kept apart here.

How the values were obtained:
Format in all cases: biochemical
human caspase-3 = target: T1, human caspase-3 (Homo sapiens, UniProt P42574); test: Fluorescent enzyme assay, Casp3 (AFC substrate AcDEVD-AFC)
T1 construct: made in house; host or cells: E. coli Rosetta 2 pLysS DE3
T1 sequence (P42574 29-277): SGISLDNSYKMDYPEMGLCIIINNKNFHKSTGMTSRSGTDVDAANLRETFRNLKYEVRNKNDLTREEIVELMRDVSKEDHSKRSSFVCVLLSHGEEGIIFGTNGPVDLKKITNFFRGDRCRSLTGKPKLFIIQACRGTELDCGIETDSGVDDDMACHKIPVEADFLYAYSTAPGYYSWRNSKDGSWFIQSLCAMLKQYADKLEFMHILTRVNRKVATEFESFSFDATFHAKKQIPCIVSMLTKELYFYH
Description: (§1) Human recombinant Casp1, 6, 7, and 9 were purchased from BioVision (Milpitas/CA, USA). AFC fluorogenic substrates and control peptides (AcYVAD-CHO, AcVDVAD-CHO, AcDEVD-CHO, AcVEID-CHO, and AcLEHD-CHO) were purchased from Bachem (Torrance/CA, USA). The pET23b vector encoding human caspase-3 was a gift of Dr. Michelle Arkin at University of California, San Francisco. Expression and purification of Casp3 was guided by previously described protocols (Denault J-B, Salvesen G S., Current Protocols in Protein Science, 2002, 30(1), 21.13. 1-21.13. 15). Briefly, the plasmid was transformed into E. coli Rosetta 2 pLyss DE3 cells that were cultured at 1 L scale in shake flasks. Five hours post induction with IPTG, cells were harvested through centrifugation (4000 g for 10 minutes at 4° C.), lysed by sonication, and centrifuged again for 30 minutes at 20000 g. Supernatant was resuspended in buffer (100 mM Tris pH 8.0, 500 mM NaCl). Purification was achieved by nickel-affinity chromatography followed by ion-exchange chromatography. Protein was diluted to 0.5 mg/mL and stored at −80° C. in 100 mM Tris, pH 8.0 supplemented with 10% glycerol. The typical yield for the expression, isolation, and purification was approximately 3 mg/L. The DNA encoding human caspase-2 (hCASP2, amino acids 170-452, free of the N-terminal caspase activation and recruitment domain) open reading frame (ORF) was amplified via polymerase chain reaction (PCR) from full-length hCASP2 cDNA (Origene, Rockville, MD; Cat #SC321316) using following primers: forward, 5′-[…]-3′; reverse, 5′-[…]-3′. The PCR fragment was then cloned into the pET23b vector (Millipore Sigma, Burlington, MA), and DNA sequence was verified by classic Sanger sequencing analyses. Site-directed mutageneses were carried out using a QuikChange II XL site-directed mutagenesis kit (Agilent Technologies, Santa Clara, CA; Cat #200522) according to the manufacturer's instruction. Expression of recombinant hCASP2 was induced using 150 μM isopropyl-β-D-thiogalactopyranoside (IPTG) (Promega, Madison, WI) in the BL21(DE3) E. coli strain (Millipore Sigma) at 16° C. for 14 hours while shaking at 250 rpm. Cells were then harvested via centrifugation at 6,000 g, 4° C. for 15 minutes, followed by lysis via sonication. Proteins were initially purified using HisPur Ni-NTA resin (Thermo Fisher Scientific, Waltham, MA) followed by metal chelating chromatography (5 mL HiTrap Chelating HP columns (GE Healthcare Life Sciences, Piscataway, NJ)). Further purification was carried out using anion exchange chromatography (5 mL HiTrap Q HP columns (GE Healthcare Life Sciences)) for hCASP2. Proteins were stored in 1× phosphate-buffered saline (pH 7.4) at 10 mg/mL (concentration determined using a BCA assay (Thermo Fisher Scientific)), −80° C. until further use.
(§2) KM values were determined experimentally to be the following: Casp1: 5.9 μM; Casp2: 37.1 μM; Casp3: 7.6 μM; Casp6: 14.5 μM; Casp7: 13.8 μM; Casp9: 149.1 μM. Enzymes were diluted in buffer: 100 mM MES (pH 6.5) for Casp2 and or 100 mM HEPES (pH 7.0) for all other caspases, plus 150 mM NaCl, 0.1% CHAPS, 1.5% sucrose, 10 mM DTT. Enzyme concentrations were 0.05 U/well for Casp1, 6, and 7; 0.5 U/well for Casp9, 20 nM/well for Casp2, and 2 nM/well for Casp3. Enzyme in buffer (19 μL) was added per well in a black 384-well Corning 4514 assay plate. Test compounds were serially diluted in dimethyl sulfoxide (DMSO) and plated in duplicate into a Corning 3656 transfer plate. Test compound was added to assay plates in 0.5 μL aliquots per well and mixed 10 times using a BiomekFX (Beckman Coulter). Compound and enzyme mixture was incubated at 37° C. for 5 minutes for aldehyde warheads and 45 minutes for cyano warheads. […]

human caspase-2 = target: T2, human caspase-2 (Homo sapiens, UniProt P42575); test: Fluorescent enzyme assay, Casp2 (AFC substrate Z-VDVAD-AFC); settings: for Ki (Casp3) / Ki (Casp2): selectivity Casp2 over Casp3
T2 construct: inferred from pET23b, XhoI reverse primer without stop codon, Ni-NTA purification) (C); made in house; host or cells: E. coli BL21(DE3)
T2 sequence (P42575 170-452): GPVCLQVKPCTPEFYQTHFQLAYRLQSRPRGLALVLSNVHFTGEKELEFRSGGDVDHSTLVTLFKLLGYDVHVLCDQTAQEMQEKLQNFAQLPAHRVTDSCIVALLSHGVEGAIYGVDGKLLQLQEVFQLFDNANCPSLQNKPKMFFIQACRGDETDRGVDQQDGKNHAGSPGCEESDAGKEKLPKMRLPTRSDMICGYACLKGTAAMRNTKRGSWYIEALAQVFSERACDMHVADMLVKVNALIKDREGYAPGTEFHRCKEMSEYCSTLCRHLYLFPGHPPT
Description: as §1, §2

thrombin = thrombin (Homo sapiens, UniProt P00734); test: Activity at thrombin proteolytic enzyme
Human recombinant Casp6 = target: T3, Human recombinant Casp6 (Homo sapiens, UniProt P55212); test: In vitro caspase panel assay, Casp6; settings: Casp2 over Casp6, caspase panel
T3 construct: purchased BioVision (Milpitas/CA, USA)
T3 sequence (P55212 24-293): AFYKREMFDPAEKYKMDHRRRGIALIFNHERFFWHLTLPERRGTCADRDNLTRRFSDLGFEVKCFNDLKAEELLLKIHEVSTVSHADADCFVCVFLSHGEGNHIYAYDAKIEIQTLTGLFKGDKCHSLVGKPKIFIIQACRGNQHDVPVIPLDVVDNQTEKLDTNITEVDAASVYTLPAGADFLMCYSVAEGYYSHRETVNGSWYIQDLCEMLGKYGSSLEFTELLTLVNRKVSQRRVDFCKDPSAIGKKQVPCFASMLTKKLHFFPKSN
Description: Human recombinant Casp1, 6, 7, and 9 were purchased from BioVision (Milpitas/CA, USA). AFC fluorogenic substrates and control peptides (AcYVAD-CHO, AcVDVAD-CHO, AcDEVD-CHO, AcVEID-CHO, and AcLEHD-CHO) were purchased from Bachem (Torrance/CA, USA). The pET23b vector encoding human caspase-3 was a gift of Dr. Michelle Arkin at University of California, San Francisco. Expression and purification of Casp3 was guided by previously described protocols (Denault J-B, Salvesen G S., Current Protocols in Protein Science, 2002, 30(1), 21.13. 1-21.13. 15). Briefly, the plasmid was transformed into E. coli Rosetta 2 pLyss DE3 cells that were cultured at 1 L scale in shake flasks. […] The typical yield for the expression, isolation, and purification was approximately 3 mg/L. The DNA encoding human caspase-2 (hCASP2, amino acids 170-452, free of the N-terminal caspase activation and recruitment domain) open reading frame (ORF) was amplified via polymerase chain reaction (PCR) from full-length hCASP2 cDNA (Origene, Rockville, MD; Cat #SC321316) using following primers: forward, 5′-[…]-3′; reverse, 5′-[…]-3′. […] Proteins were stored in 1× phosphate-buffered saline (pH 7.4) at 10 mg/mL (concentration determined using a BCA assay (Thermo Fisher Scientific)), −80° C. until further use. […]

[1] = mean ± SEM of N independent experiments, each in duplicate or triplicate

| Compound | Ki (human caspase-3; mean ± SEM of N independent experiments, each in duplicate or triplicate, read-out: pKi ± SEM Casp 3 (converted)) | Ki (human caspase-2; mean ± SEM of N independent experiments, each in duplicate or triplicate, read-out: pKi ± SEM Casp 2 (converted)) | Ki (Casp3) / Ki (Casp2) (human caspase-2) | pKi ± SEM Casp 3 (human caspase-3; [1]) | pKi ± SEM Casp 2 (human caspase-2; [1]) | Ki (human caspase-3) | Ki (human caspase-2) | selective versus Casp3 (human caspase-2; Casp2 over Casp3) | activity at thrombin (thrombin) | selective versus Casp6 (Human recombinant Casp6) |
| --- | --- | --- | --- | --- | --- | --- | --- | --- | --- | --- |
| CC(=O)N[C@H](C(=O)NC(CC(=O)O)C(=O)N[C@H](C(=O)N1CCc2cc(C)ccc2C1C(=O)N[C@H](C=O)CC(=O)O)C(C)C)C(C)C (stereo in doubt) [Compound 30a, (R)-3-((S)-2-acetamido-3-methylbutanamido)-4-(((S)-1-((S)-1-(((S)-1-carboxy-3-oxopropan-2-yl)carbamoyl)-6-methyl-3,4-dihydroisoquinolin-2(1H)-yl)-3-methyl-1-oxobutan-2-yl)amino)-4-oxobutanoic acid, reference compound] | > 100000 nM | 10500 nM | >9 | – | – | – | – | – | – | – |
| CC(=O)N[C@H](C(=O)N[C@@H](CC(=O)O)C(=O)N[C@H](C(=O)N1CCc2cc(C)ccc2[C@H]1C(=O)N[C@H](C=O)CC(=O)O)C(C)C)C(C)C [Compound 30b, (S)-3-((S)-2-acetamido-3-methylbutanamido)-4-(((S)-1-((S)-1-(((S)-1-carboxy-3-oxopropan-2-yl)carbamoyl)-6-methyl-3,4-dihydroisoquinolin-2(1H)-yl)-3-methyl-1-oxobutan-2-yl)amino)-4-oxobutanoic acid, reference compound] | – | – | 70 | 6.04 ± 0.06 | 7.89 ± 0.02 | – | – | – | – | – |
| Cc1ccc2c(c1)CCN(C(=O)[C@@H](NC(=O)[C@H](CCCC(=O)O)NC(=O)C1Cc3ccccc3N1)C(C)C)[C@@H]2C(=O)N[C@H](C#N)CC(=O)O (stereo partly drawn) [Compound 1, (8)-6-(((S)-1-((8)-1-(((S)-2-carboxy-1-cyanoethyl)carbamoyl)-6-methyl-3,4-dihydroisoquinolin-2(1H)-yl)-3-methyl-1-oxobutan-2-yl)amino)-5-((S)-indoline-2-carboxamido)-6-oxohexanoic acid] | – | – | 123 | – | – | 933 nM | 7.59 nM | 123 fold | weak activity | > 2000 fold |
